From ChEMBL document CHEMBL3351292, “Structure-Based Design and Synthesis of Potent Cyclic Peptides Inhibiting the YAP-TEAD Protein-Protein Interaction” (ACS Med Chem Lett, 2014)
Where a SMILES comes first, the peptide text is derived from it. Bridges are numbered along the chain shown (N, C = ends). [ ]: non-standard residue; d: D form. hCys = N[C@@H](CCS)C(=O)O; Nle = CCCC[C@H](N)C(=O)O

Key:
[1] = molecular target: T1, Transcriptional coactivator YAP1/Transcriptional enhancer factor TEF-1 (Homo sapiens, UniProt P28347); test: Inhibition of YAP/ GST-TEAD1 (unknown origin) interaction by surface plasmon resonance assay; assay type: protein assay
T1 sequence (P46937 whole entry): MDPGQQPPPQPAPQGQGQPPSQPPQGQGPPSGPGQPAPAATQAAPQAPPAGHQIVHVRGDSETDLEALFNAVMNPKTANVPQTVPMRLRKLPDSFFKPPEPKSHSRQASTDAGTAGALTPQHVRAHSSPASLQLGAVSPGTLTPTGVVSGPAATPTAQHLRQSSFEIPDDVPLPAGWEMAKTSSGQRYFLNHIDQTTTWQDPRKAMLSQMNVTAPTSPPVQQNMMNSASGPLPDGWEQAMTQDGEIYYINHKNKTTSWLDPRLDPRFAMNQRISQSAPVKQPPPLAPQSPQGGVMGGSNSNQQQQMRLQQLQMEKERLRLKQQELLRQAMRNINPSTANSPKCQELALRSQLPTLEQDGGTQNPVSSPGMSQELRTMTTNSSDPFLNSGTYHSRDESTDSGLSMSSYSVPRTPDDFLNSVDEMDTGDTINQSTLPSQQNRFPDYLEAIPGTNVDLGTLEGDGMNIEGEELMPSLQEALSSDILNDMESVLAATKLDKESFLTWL
T1 sequence (P28347 whole entry): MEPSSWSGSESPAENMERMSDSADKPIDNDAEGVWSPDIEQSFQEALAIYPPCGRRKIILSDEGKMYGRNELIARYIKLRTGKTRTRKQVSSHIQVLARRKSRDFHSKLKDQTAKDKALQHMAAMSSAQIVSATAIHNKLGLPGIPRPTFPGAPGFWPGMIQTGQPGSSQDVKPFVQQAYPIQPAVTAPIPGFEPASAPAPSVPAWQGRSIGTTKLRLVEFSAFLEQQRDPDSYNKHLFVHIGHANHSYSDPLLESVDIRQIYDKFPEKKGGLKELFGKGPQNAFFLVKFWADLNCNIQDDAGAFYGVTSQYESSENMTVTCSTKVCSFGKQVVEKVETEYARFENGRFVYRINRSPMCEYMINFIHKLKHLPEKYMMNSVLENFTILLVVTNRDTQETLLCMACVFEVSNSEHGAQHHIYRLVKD

[2] = molecular target: T1, Transcriptional coactivator YAP1/Transcriptional enhancer factor TEF-1; test: Inhibition of YAP/ GST-TEAD1 interaction in human Bel-7404 cells […]; assay type: cell-based, Bel7404
[3] = molecular target: Transcriptional coactivator YAP1/Transcriptional enhancer factor TEF-1 (Homo sapiens) (UniProt P46937+P28347); test: Inhibition of YAP/ GST-TEAD1 (unknown origin) interaction at 50 uM by surface plasmon resonance assay; assay type: protein assay
Transcriptional coactivator YAP1/Transcriptional enhancer factor TEF-1 (Homo sapiens), sequence (P28347 whole entry, looked up): as the sequence (P28347 whole entry) above
Transcriptional coactivator YAP1/Transcriptional enhancer factor TEF-1 (Homo sapiens), sequence (P46937 whole entry, looked up): as the sequence (P46937 whole entry) above

Row | Compound | IC50 [1] [nM] | Kd [2] [nM] | inhibition [3] [%]
1 | CCCCCC[C@@H]1NC(=O)[C@H](CCCCN)NC(=O)[C@H](CCCNC(=N)N)NC(=O)[C@H](CC(C)C)NC(=O)[C@@H](NC(=O)[C@H](CCSC)NC(=O)[C@@H]2CCCN2C(=O)[C@@H](NC(C)=O)C(C)C)CCSSC[C@@H](C(=O)N[C@@H](CCCCN)C(=O)N2CCC[C@H]2C(=O)N2CCC[C@H]2C(=O)N[C@@H](CCC(=O)O)C(N)=O)NC(=O)[C@H](Cc2ccccc2)NC(=O)[C@H](CO)NC(=O)[C@H](C)NC(=O)[C@@H]2CCCN2C1=O | 370 | – | –
2 | CCCC[C@H](NC(=O)[C@@H]1CCCN1C(=O)[C@@H](NC(C)=O)C(C)C)C(=O)N[C@H]1CCSSC[C@@H](C(=O)N[C@@H](CCCCN)C(=O)N2CCC[C@H]2C(=O)N2CCC[C@H]2C(=O)N[C@@H](CCC(=O)O)C(N)=O)NC(=O)[C@H](Cc2ccccc2)NC(=O)[C@H](CO)NC(=O)[C@H](C)NC(=O)[C@@H]2CCCN2C(=O)[C@H](CCCC)NC(=O)[C@H](CCCCN)NC(=O)[C@H](CCCNC(=N)N)NC(=O)[C@H](CC(C)C)NC1=O | 340 | – | –
3 | CCCC[C@@H]1NC(=O)[C@H](CCCCN)NC(=O)[C@H](CCCNC(=N)N)NC(=O)[C@H](CC(C)C)NC(=O)[C@@H](NC(=O)[C@H](Cc2ccccc2)NC(=O)[C@@H]2CCCN2C(=O)[C@@H](NC(C)=O)C(C)C)CCSSC[C@@H](C(=O)N[C@@H](CCCCN)C(=O)N2CCC[C@H]2C(=O)N2CCC[C@H]2C(=O)N[C@@H](CCC(=O)O)C(N)=O)NC(=O)[C@H](Cc2ccccc2)NC(=O)[C@H](CO)NC(=O)[C@H](C)NC(=O)[C@@H]2CCCN2C1=O | 350 | – | –
4 | CCCC[C@@H]1NC(=O)[C@H](CCCCN)NC(=O)[C@H](CCCNC(=N)N)NC(=O)[C@H](CC(C)C)NC(=O)[C@@H](NC(=O)[C@H](Cc2cccc(Cl)c2)NC(=O)[C@@H]2CCCN2C(=O)[C@@H](NC(C)=O)C(C)C)CCSSC[C@@H](C(=O)N[C@@H](CCCCN)C(=O)N2CCC[C@H]2C(=O)N2CCC[C@H]2C(=O)N[C@@H](CCC(=O)O)C(N)=O)NC(=O)[C@H](Cc2ccccc2)NC(=O)[C@H](CO)NC(=O)[C@H](C)NC(=O)[C@@H]2CCCN2C1=O | 25 | 15 | –
5 | CCCC[C@@H]1NC(=O)[C@H](CCCCN)NC(=O)[C@H](CCCNC(=N)N)NC(=O)[C@H](CC(C)C)NC(=O)[C@@H](NC(=O)[C@H](Cc2ccc(Cl)cc2)NC(=O)[C@@H]2CCCN2C(=O)[C@@H](NC(C)=O)C(C)C)CCSSC[C@@H](C(=O)N[C@@H](CCCCN)C(=O)N2CCC[C@H]2C(=O)N2CCC[C@H]2C(=O)N[C@@H](CCC(=O)O)C(N)=O)NC(=O)[C@H](Cc2ccccc2)NC(=O)[C@H](CO)NC(=O)[C@H](C)NC(=O)[C@@H]2CCCN2C1=O | 530 | – | –
6 | CSCC[C@H](NC(=O)[C@@H]1CCCN1C(=O)[C@@H](NC(=O)[C@@H](NC(=O)[C@H](CCC(N)=O)NC(=O)[C@@H]1CCCN1C(C)=O)[C@@H](C)O)C(C)C)C(=O)N[C@@H](CCCNC(=N)N)C(=O)N[C@@H](CC(C)C)C(=O)N[C@@H](CCCNC(=N)N)C(=O)N[C@@H](CCCCN)C(=O)N[C@@H](CC(C)C)C(=O)N1CCC[C@H]1C(=O)N[C@@H](C)C(=O)N[C@@H](CO)C(=O)N[C@@H](Cc1ccccc1)C(=O)N[C@@H](Cc1ccccc1)C(=O)N[C@@H](CCCCN)C(=O)N1CCC[C@H]1C(=O)N1CCC[C@H]1C(=O)N[C@@H](CCC(=O)O)C(N)=O (Ac-PQTVPMRLRKLPASFFKPPE-NH2) | 25000 | – | 83
7 | CSCC[C@H](NC(=O)[C@@H]1CCCN1C(=O)[C@@H](NC(=O)[C@@H](NC(=O)[C@H](CCC(N)=O)NC(=O)[C@@H]1CCCN1C(C)=O)[C@@H](C)O)C(C)C)C(=O)N[C@@H](CCCNC(=N)N)C(=O)N[C@@H](CC(C)C)C(=O)N[C@@H](CCCNC(=N)N)C(=O)N[C@@H](CCCCN)C(=O)N[C@@H](CC(C)C)C(=O)N1CCC[C@H]1C(=O)N[C@@H](CC(=O)O)C(=O)N[C@@H](CO)C(=O)N[C@@H](Cc1ccccc1)C(=O)N[C@@H](Cc1ccccc1)C(=O)N[C@@H](CCCCN)C(=O)N1CCC[C@H]1C(=O)N1CCC[C@H]1C(=O)N[C@@H](C)C(N)=O (Ac-PQTVPMRLRKLPDSFFKPPA-NH2) | 43000 | – | 71

Continued, values first:

Row | IC50 [1] [nM] | Kd [2] [nM] | inhibition [3] [%] | Compound
8 | 6900 | – | – | CSCC[C@H](NC(=O)[C@@H]1CCCN1C(=O)[C@@H](NC(C)=O)C(C)C)C(=O)N[C@H]1CCSSC[C@@H](C(=O)N[C@@H](CCCCN)C(=O)N2CCC[C@H]2C(=O)N2CCC[C@H]2C(=O)N[C@@H](CCC(=O)O)C(N)=O)NC(=O)[C@H](Cc2ccccc2)NC(=O)[C@H](CO)NC(=O)[C@H](CC(=O)O)NC(=O)[C@@H]2CCCN2C(=O)[C@H](CC(C)C)NC(=O)[C@H](CCCCN)NC(=O)[C@H](CCCNC(=N)N)NC(=O)[C@H](CC(C)C)NC1=O
9 | 1500 | – | – | CSCC[C@H](NC(=O)[C@@H]1CCCN1C(=O)[C@@H](NC(C)=O)C(C)C)C(=O)N[C@H]1CCSSC[C@@H](C(=O)N[C@@H](CCCCN)C(=O)N2CCC[C@H]2C(=O)N2CCC[C@H]2C(=O)N[C@@H](CCC(=O)O)C(N)=O)NC(=O)[C@H](Cc2ccccc2)NC(=O)[C@H](CO)NC(=O)[C@H](C)NC(=O)[C@@H]2CCCN2C(=O)[C@H](CC(C)C)NC(=O)[C@H](CCCCN)NC(=O)[C@H](CCCNC(=N)N)NC(=O)[C@H](CC(C)C)NC1=O
10 | 150 | 39 | – | CCCC[C@@H]1NC(=O)[C@H](CCCCN)NC(=O)[C@H](CCCNC(=N)N)NC(=O)[C@H](CC(C)C)NC(=O)[C@@H](NC(=O)[C@H](CCSC)NC(=O)[C@@H]2CCCN2C(=O)[C@@H](NC(C)=O)C(C)C)CCSSC[C@@H](C(=O)N[C@@H](CCCCN)C(=O)N2CCC[C@H]2C(=O)N2CCC[C@H]2C(=O)N[C@@H](CCC(=O)O)C(N)=O)NC(=O)[C@H](Cc2ccccc2)NC(=O)[C@H](CO)NC(=O)[C@H](C)NC(=O)[C@@H]2CCCN2C1=O
11 | 42 | 18 | – | CCCCC[C@@H]1NC(=O)[C@H](CCCCN)NC(=O)[C@H](CCCNC(=N)N)NC(=O)[C@H](CC(C)C)NC(=O)[C@@H](NC(=O)[C@H](CCSC)NC(=O)[C@@H]2CCCN2C(=O)[C@@H](NC(C)=O)C(C)C)CCSSC[C@@H](C(=O)N[C@@H](CCCCN)C(=O)N2CCC[C@H]2C(=O)N2CCC[C@H]2C(=O)N[C@@H](CCC(=O)O)C(N)=O)NC(=O)[C@H](Cc2ccccc2)NC(=O)[C@H](CO)NC(=O)[C@H](C)NC(=O)[C@@H]2CCCN2C1=O
12 | 310 | – | – | CSCC[C@H](NC(=O)[C@@H]1CCCN1C(=O)[C@@H](NC(C)=O)C(C)C)C(=O)N[C@H]1CCSSC[C@@H](C(=O)N[C@@H](CCCCN)C(=O)N2CCC[C@H]2C(=O)N2CCC[C@H]2C(=O)N[C@@H](CCC(=O)O)C(N)=O)NC(=O)[C@H](Cc2ccccc2)NC(=O)[C@H](CO)NC(=O)[C@H](C)NC(=O)[C@@H]2CCCN2C(=O)[C@H](CCCC(C)C)NC(=O)[C@H](CCCCN)NC(=O)[C@H](CCCNC(=N)N)NC(=O)[C@H](CC(C)C)NC1=O
13 | > 100000 | – | – | CSCC[C@H](NC(=O)[C@@H]1CCCN1C(=O)[C@@H](NC(C)=O)C(C)C)C(=O)N[C@H]1CSSC[C@@H](C(=O)N[C@@H](CCCCN)C(=O)N2CCC[C@H]2C(=O)N2CCC[C@H]2C(=O)N[C@@H](CCC(=O)O)C(N)=O)NC(=O)[C@H](Cc2ccccc2)NC(=O)[C@H](CO)NC(=O)[C@H](CC(=O)O)NC(=O)[C@@H]2CCCN2C(=O)[C@H](CC(C)C)NC(=O)[C@H](CCCCN)NC(=O)[C@H](CCCNC(=N)N)NC(=O)[C@H](CC(C)C)NC1=O (Ac-VPMCLRKLPDSFCKPPE-NH2; disulfide 4-13)
14 | 85000 | – | – | CSCC[C@H](NC(=O)[C@@H]1CCCN1C(=O)[C@@H](NC(C)=O)C(C)C)C(=O)N[C@H]1CSSCC[C@@H](C(=O)N[C@@H](CCCCN)C(=O)N2CCC[C@H]2C(=O)N2CCC[C@H]2C(=O)N[C@@H](CCC(=O)O)C(N)=O)NC(=O)[C@H](Cc2ccccc2)NC(=O)[C@H](CO)NC(=O)[C@H](CC(=O)O)NC(=O)[C@@H]2CCCN2C(=O)[C@H](CC(C)C)NC(=O)[C@H](CCCCN)NC(=O)[C@H](CCCNC(=N)N)NC(=O)[C@H](CC(C)C)NC1=O (Ac-VPMCLRKLPDSF[hCys]KPPE-NH2; disulfide 4-13)
15 | > 100000 | – | – | CSCC[C@H](NC(=O)[C@@H]1CCCN1C(=O)[C@@H](NC(C)=O)C(C)C)C(=O)N[C@H]1CCSSCC[C@@H](C(=O)N[C@@H](CCCCN)C(=O)N2CCC[C@H]2C(=O)N2CCC[C@H]2C(=O)N[C@@H](CCC(=O)O)C(N)=O)NC(=O)[C@H](Cc2ccccc2)NC(=O)[C@H](CO)NC(=O)[C@H](CC(=O)O)NC(=O)[C@@H]2CCCN2C(=O)[C@H](CC(C)C)NC(=O)[C@H](CCCCN)NC(=O)[C@H](CCCNC(=N)N)NC(=O)[C@H](CC(C)C)NC1=O (Ac-VPM[hCys]LRKLPDSF[hCys]KPPE-NH2; disulfide 4-13)
16 | 1700 | 211 | – | CCCC[C@@H]1NC(=O)[C@H](CCCCN)NC(=O)[C@H](CCCNC(=N)N)NC(=O)[C@H](CC(C)C)NC(=O)[C@@H](NC(=O)[C@H](CCSC)NC(=O)[C@@H]2CCCN2C(=O)[C@@H](NC(C)=O)C(C)C)CCSSC[C@@H](C(=O)N[C@@H](CCCCN)C(=O)N2CCC[C@H]2C(=O)N2CCC[C@H]2C(=O)N[C@@H](CCC(=O)O)C(N)=O)NC(=O)[C@H](Cc2ccccc2)NC(=O)[C@H](CO)NC(=O)[C@H](CC(=O)O)NC(=O)[C@@H]2CCCN2C1=O (Ac-VPM[hCys]LRK[Nle]PDSFCKPPE-NH2; disulfide 4-13)
